The test system of data set [1] is SH-SY5Y cells. The data set can be described thus: ROS production (DCF-DA) in SH-SY5Y cells. It is filed as cell-based, human. As to conditions: 0.01-0.1 mg/mL TFV. On the procedure: (§1) As a first approach to predict the inflammatory response on neuronal cells, the ROS production of HMC-3 and SH-SY5Y cells was evaluated. HMC-3 (FIG. 12A) and SH-SY5Y cells (FIG. 12B) were treated with the different drug-to-lipid ratios of 1:20 and 1:4 at varying TFV drug concentrations (0.01-0.1 mg/mL). A negative control antioxidant (catalase) and positive control (H2O2) were used on non-treated cells. A simultaneous setup was also performed for empty NDs at varying lipid concentrations.
(§2) Reactive oxygen species of ND: Reactive oxygen species (ROS) productions in HMC-3 and SH-SY5Y cells following nanodisc treatment were detected using dichlorofluorescein diacetate assay (DCF-DA; Molecular Probes, Eugene, OR). Cells were cultured in 96-well black bottom plates at 100,000 cells per well and incubated at 37° C. in a humidified, 5% CO2 atmosphere for 24 hours to allow for 70% confluence. The following day, cell media was taken out from each well and replenished with 100 μl of PBS+1% FBS. […] A study of FD-TFV was also measured in similar conditions simultaneously. […] Following 2 hours, the first reading of cell ROS production was read in a BioTek Synergy HTH.T. multi-mode microplate reader (BioTek, Winooski, VT, USA) and then taken every hour for the following 18 hours (excitation 485 nm and emission 528 nm; BioTek). […]

Data set [2] in a line: In vitro sustained drug release assay of liposomal structure (equilibrium dialysis in PBS, NanoDrop). It is filed as physicochemical. On the procedure: In order to study the liposome formulation's extended drug release kinetics, a drug release study was done in PBS using an equilibrium dialysis system. […] Liposome 1 has a lipid charge density of 5%. The released TFV from the dialysis bag into the outside environment was sampled at different time points up to 14 days and was measured by a NanoDrop Microvolume Spectrophotometer. Simultaneously, a separate setup with the same concentration and volume of FD-TFV was used as a control. Results were expressed as the cumulative total of TFV released into the system compared to the initial concentration (FIG. 18). […] This downward trend may be caused by byproducts from the FD-TFV in the external environment.
(In equilibrium dialysis only unbound substance equilibrates across the membrane.)

In data set [3] the test system is HMC-3 cells. In words: Cell viability (MTS) assay on HMC-3 cells. The settings on record: HMC-3, 72 hours, 0.01-0.1 mg/mL. It is filed as cell-based, human. As to the method: (§3) To characterize the nanodisc formulation in the biological system in in vitro conditions, it was necessary to screen the formulation for cytotoxicity and ensure that it would not induce significant cytotoxicity to microglial (HMC-3) and neuronal (SH-SY5Y) cells. […] A cell viability (MTS) study was performed for both 1:20 and 1:4 NDs as per the manufacturer's instruction (G3582, Promega, Madison, WI, USA). Nanodiscs were introduced to these cells separately at varying TFV drug concentrations of 0.01-0.1 mg/mL and incubated for 72 hours.
(§4) Microglia and Neuroblastoma Cell Culture: Human embryonic microglial clone 3 cells (HMC-3) and human neuroblastoma cells (SH-SY5Y) were purchased from the American Type Culture Collection (ATCC) Manassas, VA, USA). The transformed cell lines retain the properties of primary cells. They represent homogeneous cell populations that can be grown indefinitely and might represent a convenient system for their functions' biochemical analysis. Cells were cultured in Eagle's Minimum Essential Medium (EMEM) (ATCC®, Manassas, VA, USA) supplemented with a fetal bovine serum to a final concentration of 10% at 37° C. in a humidified, 5% CO2 atmosphere as recommended by the supplier.
(§5) Cells were cultured in 96-well black bottom plates at 50,000 cells per well and incubated at 37° C. in a humidified, 5% CO2 atmosphere for 24 hours to allow for 70% confluence. […]

Data set [4] has as its system SH-SY5Y cells. In words: Cell viability (MTS) assay on SH-SY5Y cells. It is filed as cell-based, human. As to conditions: 72 hours, 0.01-0.1 mg/mL. On the procedure: as §3, §4, §5
Data set [5] has as its system HMC-3 cells. The data set can be described thus: ROS production (DCF-DA) in HMC-3 cells. It is filed as cell-based, human. The settings on record: 0.01-0.1 mg/mL TFV. On the procedure: as §1, §2
Data set [6] in a line: In vitro sustained drug release assay of ND (equilibrium dialysis in PBS, LC-MS/MS). It is filed as physicochemical. As to the method:
In vitro sustained drug release assay: The nanodisc formulation's extended drug release profile was determined in phosphate buffer saline (PBS) using an equilibrium dialysis system. The released TFV from the dialysis bag into the outside environment was sampled at different time points up to 14 days and was measured by LC-MS/MS. The dialysis bag used in these experiments was selected for its pore size of 6-8 kDa MWCO. […] Simultaneously, a separate set up with the same concentration and volume of FD-TFV was used as a control. Results were expressed as the percentage of total TFV released into the system compared to the initial concentration. It was observed that 63% of FD-TFV was release within 4 hours. […] (FIG. 14).
In vitro sustained drug release assay of ND: The drug release kinetics of the nanodisc-based drug delivery was determined in PBS using equilibrium dialysis. […] TFV was monitored by LC-MS/MS using an AB Sciex (Framingham, MA) 6500+QTRAP® mass spectrometer coupled to a Shimadzu (Columbia, MD) NexeraX2 LC. […] LC-MS/MS then evaluated the supernatant. […] The limit of quantitation (LOQ) was defined as the lowest concentration at which back-calculation yielded a concentration within 20% of theoretical and above the LOD.

Data set [7] concerns HMC-3 cells. The data set can be described thus: In vitro cellular uptake study in microglial cells. It is filed as in vitro ADME, human. The settings on record: HMC-3, 0.0625 mg/mL, monitored over 24 hours. On the procedure: Cell uptake and characterization of extended-release from nanodisc: To evaluate the intracellular uptake of TFV in microglial cells an in vitro cellular uptake study was performed. The cellular uptake of the two formulations (1:20 ND and 1:4 ND) and FD-TFV as a control were evaluated simultaneously and the uptake and release of TFV was monitored over 24 hours. […] This small window of cellular uptake may indicate that there is a certain capacity that microglia cells can uptake TFV. […] However, the short windows of drug uptake by the microglial cells could indicate that the size and surface charge of the ND could be a contributing factor.
Cell uptake and characterization of extended-release from ND: Microglial uptake, retention, and release of 1:20 ND, 1:4 ND, and FD-TFV were determined. HMC-3 cells were cultured in 24-well at 50,000 cells per well and incubated at 37° C. in a humidified, 5% CO2 atmosphere for 24 hours to allow for 70% confluence. After 24 hours of cell growth, samples were assigned into different treatment groups of 1:20 ND, 1:4 ND, and FD-TFV and treated at 0.0625 mg/mL concentration. Following drug treatment, samples were incubated at 37° C., and cell uptake was determined every hour over 8 hours and at a 24-hour timepoint. For each sample, media was collected into microcentrifuge tubes and stored at −20° C. for later analysis. […]

The conditions of data set [8]: mouse, in vivo, iv, 20 mg/kg. On the procedure:
PK data analysis was performed using the plasma concentrations of TFV in the mice (FIG. 17). Plasma samples were collected for up to 48 hrs and 72 hours.
An Envigo Teklad Certified Global 18% protein rodent diet, #2018C, and water were provided to the mice ad libitum. Mice were administered a single dose intravenous (iv) dose administration. The average weight of Phase A and Phase B mice were 17.3-18.6 g and 17.2-23.4 g, respectively. All procedures were per the current Association for Assessment and Accreditation of Laboratory Animal Care (AAALAC) recommendations. In vivo studies were carried out in collaboration with NIH-DAIDS Preclinical Contract Services.
During the PK study, 24 males and 24 females used for this phase were divided into two groups (Table 5). […]
TFV was detected with the mass spectrometer in positive MRM (multiple reaction monitoring) mode by following the precursor to fragment ion transitions 288.1 to 176.2 for TFV. A Phenomenex Synergi Polar-RP column (4 microns, 100×2 mm) was used for chromatography with the following conditions: Buffer A: 2% acetic acid in water, Buffer B: 0.1% acetic acid in acetonitrile, 0-2.0 min 2% B, 2.0-2.01 min gradient to 98% B, 2.01-3.5 min gradient to 98% B, and then 3.51-5 min gradient to 2% B. The concentration of drug in each timepoint sample was quantified using Analyst 1.7 software (AB Sciex).

For the molecule `C[C@H](Cn1cnc2c(N)ncnc21)OCP(=O)(O)O` [FD-TFV, Tenofovir], the “ROS production compared to the control” value with SH-SY5Y cells [1] and in the data set on HMC-3 cells [5] was “did not induce a significant increase” throughout. Also, the “drug release of TFV within 4 hours” value in data set [2] (NanoDrop spectrophotometer) is 100%. The “drug release (comparison with liposomes)” value in data set [2] (up to 14 days) is listed as “significantly faster drug release than the liposomes”. Besides, the “cytotoxicity compared to the control” value in the data set with HMC-3 cells [3] and in the data set with SH-SY5Y cells [4] was “not considered to be significantly toxic” in each case. The “TFV release profile (comparison)” value in data set [6] (PBS dialysis, up to 14 days) is reported as “significantly faster TFV release”. Also, the “drug release within 4 hours” value in data set [6] (PBS, dialysis 6-8 kDa MWCO, 37° C., LC-MS/MS) was 63%. For the same molecule, the “time of maximum uptake” value in the data set with HMC-3 cells [7] worked out at 2 h. In addition, the “AUCinf values (comparison with ND formulation)” value in data set [8] is on record as “higher”. The “plasma exposure higher than for ND (mean C0, AUClast and AUCinf)” value in data set [8] is given as 2 fold.

(Values after patent US20230302154A1, “NANODRUGS FOR TARGETED DRUG DELIVERY AND USE THEREOF” (priority 2020, published 2023).)
